As a reminder, the IC50 is the concentration needed to halve the response being measured.

The values that follow come from patent US20230102554A1 (GB002, INC., priority 2019, published 2023).

Some results are limits rather than exact numbers.

The target of test [1] is T1, Human PDGFRα, cytoplasmic domain (GST-PDGFRα) (Homo sapiens, UniProt P16234).
T1 construct: made in house
Briefly: Human PDGFRα biochemical inhibition assay (off-chip Mobility Shift Assay).

Test [2] concerns the target T2, Human PDGFRβ, cytoplasmic domain (GST-PDGFRβ) (Homo sapiens, UniProt P09619).
T2 construct: made in house
Briefly: Human PDGFRβ biochemical inhibition assay (off-chip Mobility Shift Assay). On the procedure: Human PDGFRβ Biochemical Inhibition Assay
The compounds described herein were tested for the ability to inhibit activity of PDGFRβ which was achieved via use of an off-chip Mobility Shift Assay (MSA). Human PDGFRβ, cytoplasmic domain [557-1106 (end) amino acids of accession number NP_002600.1 (SEQ ID NO: 3)] was expressed as N-terminal GST-fusion protein (88 kDa) using baculovirus expression system (SEQ ID NO: 4). GST-PDGFRβ was purified by using glutathione sepharose chromatography. Test compounds were dissolved in and diluted with dimethylsulfoxide (DMSO) to achieve 1 mM concentration. Then the solution was further diluted 25-fold with assay buffer to make the final test compound solution. The reference compound, Staurosporine, used as the assay positive control was prepared similarly. The 4× compound solution/substrate (CSKtide, 1000 nM)/ATP (Km ATP)/Mg Metal (5 mM) was prepared with kit buffer (20 mM HEPES, 0.01% Triton X-100, 5 mM DTT, pH 7.5), and 2× kinase solution was prepared with assay buffer (20 mM HEPES, 0.01% Triton X-100, 1 mM DTT, pH 7.5). The 5 μL of 4× compound solution, […] of 4× Substrate/ATP/Metal solution, and […] of 2× kinase solution were mixed and incubated in a well of polypropylene 384 well microplate for 1 hour at room temperature. […] of Termination Buffer (QuickScout Screening Assist MSA; Carna Biosciences) was added to the well. The reaction mixture was applied to LabChip™ system (Perkin Elmer), and the product and substrate peptide peaks were separated and quantitated. The kinase reaction was evaluated by the product ratio calculated from peak heights of product(P) and substrate(S) peptides (P/(P+S)). The readout value of reaction control (complete reaction mixture) was set as a 0% inhibition, and the readout value of background (Enzyme(−)) was set as a 100% inhibition, then the percent inhibition of each test solution was calculated.
With respect to PDGFRβ activity: “+++” denotes an IC50 of less than 300 nM; “++” denotes an IC50 of from 300 nM to less than 1000 nM; and “+” denotes an IC50 of 1000 nM or more.

T2 sequence (P09619 with tags, fused parts or gaps): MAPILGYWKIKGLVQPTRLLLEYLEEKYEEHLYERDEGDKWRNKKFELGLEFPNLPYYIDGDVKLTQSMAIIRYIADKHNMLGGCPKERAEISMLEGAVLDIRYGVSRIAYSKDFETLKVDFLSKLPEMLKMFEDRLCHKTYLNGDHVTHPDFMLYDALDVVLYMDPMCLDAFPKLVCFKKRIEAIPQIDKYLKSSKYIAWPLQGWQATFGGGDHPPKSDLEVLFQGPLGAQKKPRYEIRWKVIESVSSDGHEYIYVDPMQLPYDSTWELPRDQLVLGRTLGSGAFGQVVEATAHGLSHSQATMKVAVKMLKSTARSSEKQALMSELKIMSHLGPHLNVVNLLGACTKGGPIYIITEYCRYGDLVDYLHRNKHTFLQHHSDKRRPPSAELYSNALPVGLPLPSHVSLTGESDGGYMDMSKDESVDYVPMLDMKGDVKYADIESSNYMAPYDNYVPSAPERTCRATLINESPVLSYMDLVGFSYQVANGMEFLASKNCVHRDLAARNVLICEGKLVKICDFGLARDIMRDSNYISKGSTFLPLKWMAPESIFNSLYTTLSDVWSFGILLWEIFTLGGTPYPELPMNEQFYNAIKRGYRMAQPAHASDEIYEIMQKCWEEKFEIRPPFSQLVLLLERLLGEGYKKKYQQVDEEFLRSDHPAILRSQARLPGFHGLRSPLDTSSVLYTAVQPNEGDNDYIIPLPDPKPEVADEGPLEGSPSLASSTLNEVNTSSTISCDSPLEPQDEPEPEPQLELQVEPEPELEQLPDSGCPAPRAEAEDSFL
T1 sequence (P16234 550-1089 T674I): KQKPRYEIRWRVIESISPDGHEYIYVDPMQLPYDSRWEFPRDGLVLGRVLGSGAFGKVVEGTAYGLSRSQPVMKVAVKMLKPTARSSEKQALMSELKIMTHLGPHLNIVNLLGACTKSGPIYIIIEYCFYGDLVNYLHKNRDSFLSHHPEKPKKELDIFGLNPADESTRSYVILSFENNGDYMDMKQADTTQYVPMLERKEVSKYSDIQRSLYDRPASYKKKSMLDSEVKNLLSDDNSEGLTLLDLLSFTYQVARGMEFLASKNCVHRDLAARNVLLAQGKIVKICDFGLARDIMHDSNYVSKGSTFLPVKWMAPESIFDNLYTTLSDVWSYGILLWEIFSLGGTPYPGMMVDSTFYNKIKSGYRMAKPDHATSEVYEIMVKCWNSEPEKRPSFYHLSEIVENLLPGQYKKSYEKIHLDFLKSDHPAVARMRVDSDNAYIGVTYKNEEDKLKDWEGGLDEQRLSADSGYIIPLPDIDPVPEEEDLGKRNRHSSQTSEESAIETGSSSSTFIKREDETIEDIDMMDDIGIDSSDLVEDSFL

On to `CCn1cc2ncc(N[C@@H](C)c3cc(NC(=O)Cc4cccc(Cl)c4)ccc3F)nc2n1` [Compound 635, (S)-2-(3-chlorophenyl)-N-(3-(1-((2-ethyl-2H-pyrazolo[3,4-b]pyrazin-6-yl)amino)ethyl)-4-fluorophenyl)acetamide], for which the half-inhibitory concentration (IC50) in test [1] and in test [2] was less than 300 nM each time.

Turning to `COc1ccc(C(=O)Nc2cccc([C@H](C)Nc3cnc4cnn(C)c4n3)c2)cc1OC` [Compound 203, (S)-3,4-dimethoxy-N-(3-(1-((1-methyl-1H-pyrazolo[3,4-b]pyrazin-6-yl)amino)ethyl)phenyl)benzamide], the IC50 in test [1] and in test [2] was less than 300 nM throughout.

Regarding `C[C@H](Nc1cnc2[nH]ccc2n1)c1cccc(NC(=O)c2ccc(C3CC3)nc2)c1` [Compound 594, (S)-N-(3-(1-((5H-pyrrolo[2,3-b]pyrazin-2-yl)amino)ethyl)phenyl)-6-cyclopropylnicotinamide], the IC50 in test [1] and in test [2] was less than 300 nM throughout.

As to `Cc1c[nH]c2ncc(N[C@@H](C)c3cccc(NC(=O)c4cc(C(C)C)on4)c3)nc12` [Compound 554, (S)-5-isopropyl-N-(3-(1-((7-methyl-5H-pyrrolo[2,3-b]pyrazin-2-yl)amino)ethyl)phenyl)isoxazole-3-carboxamide], the IC50 in test [1] and in test [2] was less than 300 nM in each case.

For the compound `Cc1cc(C(=O)Nc2cccc([C@H](C)Nc3cnc4cnn(C)c4n3)c2)cnc1CN1CCOCC1` [Compound 239, (S)-5-methyl-N-(3-(1-((1-methyl-1H-pyrazolo[3,4-b]pyrazin-6-yl)amino)ethyl)phenyl)-6-(morpholinomethyl) nicotinamide], the 50% inhibitory concentration (IC50) in test [1] and in test [2] was less than 300 nM in each case.

For `Cc1cncc(C(=O)Nc2cccc([C@H](C)Nc3cnc4cccnc4n3)c2)c1` [Compound 5, (S)-5-methyl-N-(3-(1-(pyrido[2,3-b]pyrazin-3-ylamino)ethyl)phenyl) nicotinamide], the values for the IC50 in test [1] and in test [2] were less than 300 nM and 300 to 1000 nM, respectively.

Consider `CSc1ccc(C(=O)Nc2cccc([C@H](C)Nc3cnc4cnn(C)c4n3)c2)cc1` [Compound 219, (S)-N-(3-(1-((1-methyl-1H-pyrazolo[3,4-b]pyrazin-6-yl)amino)ethyl)phenyl)-4-(methylthio)benzamide], for which the IC50 in test [1] and in test [2] was less than 300 nM in each case.

Consider `CCn1cc2ncc(N[C@@H](C)c3cc(NC(=O)Cc4ccc(F)cn4)ccc3C)nc2n1` [Compound 656, (S)-N-(3-(1-((2-ethyl-2H-pyrazolo[3,4-b]pyrazin-6-yl)amino)ethyl)-4-methylphenyl)-2-(5-fluoropyridin-2-yl) acetamide], for which the IC50 in test [1] and in test [2] was less than 300 nM in each case.

In the case of `CCn1cc2ncc(N[C@@H](C)c3cccc(NC(=O)c4ccc(CN5CC6(COC6)C5)c(F)c4)c3)nc2n1` [Compound 468, (S)-4-((2-oxa-6-azaspiro[3.3]heptan-6-yl)methyl)-N-(3-(1-((2-ethyl-2H-pyrazolo[3,4-b]pyrazin-6-yl)amino)ethyl)phenyl)-3-fluorobenzamide], the IC50 in test [1] was 300 to 1000 nM; in test [2], not below 1000 nM.

Take `CCn1cc2ncc(N[C@@H](C)c3cc(NC(=O)c4cnn(C5CC5)c4)ccc3F)nc2n1` [Compound 312, (S)-1-cyclopropyl-N-(3-(1-((2-ethyl-2H-pyrazolo[3,4-b]pyrazin-6-yl)amino)ethyl)-4-fluorophenyl)-1H-pyrazole-4-carboxamide]: the IC50 in test [1] and in test [2] was less than 300 nM in each case.

On to `CCn1cc2ncc(N[C@@H](C)c3cc(NC(=O)c4cnn(C(C)C)c4)ccc3F)nc2n1` [Compound 313, (S)-N-(3-(1-((2-ethyl-2H-pyrazolo[3,4-b]pyrazin-6-yl)amino)ethyl)-4-fluorophenyl)-1-isopropyl-1H-pyrazole-4-carboxamide], for which the IC50 in test [1] and in test [2] was less than 300 nM each time.

As to `CSc1cncc(C(=O)Nc2cccc([C@H](C)Nc3cnc4cnn(C)c4n3)c2)c1` [Compound 225], the IC50 in test [2] was less than 300 nM.
